Measurements from patent US5756505A, “N-acylpiperazine derivative, antibacterial drug and anti-ulcer drug” (Shiseido Co., Ltd., priority 1995, dated 1998).

Tests used:
[1] = test system: gastric corpus mucosa cells; assay: MTT: Cell Damaging and Protecting Effect Test; format: cell-based, rabbit (male Japanese White); details: final concentration 10^-4 M, 4 hours; smaller value is better; 100 µM
Excerpt: MTT: Cell Damaging and Protecting Effect Test
It is confirmed that there is no toxicity in cell level. Those having a toxicity in cell level are inappropriate as an anti-ulcer drug.
A male Japanese White rabbit (2.5 to 3 kg) was anesthetized to death by Nembutal™ and, immediately thereafter, its stomach was removed. The greater curvature of the stomach was incised so as to remove the stomach contents therefrom. After the mucosal surface was washed with HBSS (Hanks' Balanced Salt Solution), the stomach in ice-cooled HBSS was transferred to a laboratory. Then, after the pyloric antrum was removed, the gastric corpus mucosa was separated by a spatula and then minced into 2 to 3 mm^3 pieces in BME (Basal Medium Eagle). Thereafter, these pieces were shaken at 120 to 130 cycles/minute for 15 minutes at 37° C. in BME 60ml containig 280 U/ml of dispase and 30 to 50 U/ml of collagenase. Here, the concentration of collagenase was appropriately changed for each lot in view of the state of cells. The pieces were washed twice with EBSS (Earle's Balanced Salt Solution) containing 1 mM of EDTA and then shaken in MEM (Minimum Essential Medium) containing 1 mM of EDTA at 37° C. for 5 minutes. Subsequently, they were shaken in the dispase and collagenase having the same concentrations as those mentioned above for 15 minutes so as to remove the supernatant and then further shaken at 37° C. for 50 to 60 minutes at 120 to 130 cycles/minute. Then, after being washed twice with HBSS, Ham F12 containing 2% of Ultrocer G™ was used to attain the concentration of 1×10^6 cells/ml. Thus formed suspension was dispensed in each well of a 96-well plate by 200 μl. The plate was incubated in the atmosphere composed of 5% CO2 and 95% air at 37° C. for three days so as to attain a confluent state and then subjected to MTT assay.
The sample compound was dissolved in DMSO so as to attain a concentration of 10^-2 M and then diluted with HBSS containing 2% of Ultrocer G™ so as to attain a final concentration of 10^-4 M. To each group, which 8 wells were used for, 10 μl of MTT reagent were added immediately after 100 μl of the medium in each well were exchanged for same volume of the resulting solution of the sample compound. After being incubated in an atmosphere composed of 5% CO2 and 95% air at 37° C. for 4 hours, thus formed solution was centrifuged and then its supernatant was discarded. Subsequently, 100 μl of 100% ethanol were added to the residue so as to dissolve MTT formazan. Then, the absorbance (OD: 570 to 630) was measured by a microplate reader. This method utilizes a phenomenon in which MTT is changed to MTT formazan only by mitochondria of living cells so as to change color.
The cell damaging or cell protecting effect of the sample compound at the final concentration of 10^-4 M was expressed as cell damaging rate (%) as follows:
cell damaging rate (%)=[1-(absorbance in sample group/absorbance in control group)]×100
Accordingly, the smaller value is better in the cell damaging rate.

[2] = test system: gastric mucosa; assay: PD: Gastric Mucosal Integrity Test; format: in vivo, rat (male Crj:SD); details: rat, 100 mg/kg into ex vivo chamber, 60 minutes
Protocol: PD: Gastric Mucosal Integrity Test
In this case, since the sample compound has a necrotizing effect, it is inappropriate as an anti-ulcer medicament.
Therefore, the gastric mucosal potential difference (PD), which reflects the integrity of the gastric mucosa, is measured so as to confirm that the sample compound has no damasing effect on gastric mucosa, which is toxicity at gastric mucosal level.
Male Crj:SD rats (7 to 8-week-old) was fasted overnight, but allowed free access to water, and then, under urethane anesthesia (1.25 g/kg, i.p.), fixed to a cork board on its back. The abdomen of each rat was incised, and a small incision was made in the forestomach. Then, the inside of the stomach was washed with physiological saline heated at 37° C. From the forestomach, along the greater curvature thereof, the stomach was incised without damaging blood vessels. After the height of the cork board was adjusted on a jack, the stomach was mounted on ex vivo chamber. The area of the gastric mucosa exposed to the inside of this chamber was 2.5 cm^2. The inside of the chamber was perfused with physiological saline warmed at 37° C. by micro tube pump. By using an agar bridge containing 3M KCl, the potential difference between the chamber and the abdominal cavity was measured by a PD meter. Here, the rectal temperature was measured to control the body temperature during the experiment. After the PD was sufficiently stabilized, the perfusate was stopped and then 100 mg/10 ml/kg of the sample compound dissolved or suspended in an aqueous solution of 0.5% sodium carboxymethyl cellulose or 0.05% Tween 80 were administered into the chamber, while PD was recorded for 60 minutes. To a control, the vehicle was administered.
The change in PD during 60 minutes after the administration of 100 mg/kg of the sample compound was collectively studied and, with reference to the positive control, classified into 5 levels as follows:
5: Same as the control with no recognizable damage at all.
3: Though a weak decrease in PD and a possibility of a weak mucosal damage is recognized, there is no substantial problem.
2: Medium degree of decrease in PD is found and a mucosal damage is recognized.
1: Heavy degree of decrease in PD is found and a remarkable mucosal damage is recognized.

[3] = test system: acid secretion; assay: VOL, TAO: Acid Secretion Inhibition Test In Vivo; parameters: species or system rat (male Crj:Donryu); details: rat; for TAO: total acid output inhibitory rate / VOL: gastric juice volume inhibitory rate: 100 mg/kg oral, histamine-stimulated, pylorus ligated; for gastric acid secretion inhibition effect (in words): in vivo
Protocol: VOL, TAO: Acid Secretion Inhibition Test In Vivo
Inhibitory effect on acid secretion in vivo is confirmed.
Male Crj:Donryu rats (7-week-old) were fasted overnight but allowed free access to water. In each group, 8 to 10 of these rats were used under urethane anesthesia (1.25 g/kg). The sample compound dissolved or suspended in an aqueous solution of 0.5% sodium carboxymethylcellulose or 0.05% Tween 80 was orally administered (100 mg/10 ml/kg). 30 minutes later, the abdomen of each was incised and the pylorus was ligated. 30 minutes after the ligation, 30 mg/kg of histamine dissolved in physiological saline were subcutaneously administered and, 3 hours thereafter, the rat was sacrificed with carbon dioxide. Immediately thereafter, each stomach was removed and the gastric contents were collected and each volume was determined. The total acid output was determined by titration of the gastric juice with 0.1N NaOH.
With respect to the gastric juice volume (VOL) and the total acid output (TAO), the effects obtained when 100 mg/kg of the sample compound had been administered were expressed as their respective inhibitory rates (%) as follows:
each inhibitory rate (%)=[1-(value in sample group/value in control group)]×100

Row | MTT: cell damaging rate [1] | PD: change in gastric mucosal potential difference, level [2] | Structure (SMILES) | TAO: total acid output inhibitory rate [3] | VOL: gastric juice volume inhibitory rate [3] | gastric acid secretion inhibition effect (in words) [3]
1 | -65% | 5 | CC(C)Cc1cc(C(=O)N2CCN(CC(C)C)CC2)ccc1OCc1ccc(F)cc1 [Example 21, 1-[4-(4-fluorobenzyloxy)-3-isobutylbenzoyl]-4-isobutylpiperazine] | 35% | 9% | improved
2 | -4% | 5 | CC(C)Cc1cc(C(=O)N2CCN(CC(C)C)CC2)ccc1OCc1ccc(F)cc1.Cl [Example 22, 1-[4-(4-fluorobenzyloxy)-3-isobutylbenzoyl]-4-isobutylpiperazine hydrochloride] | 22% | 10% | improved
3 | -126% | 2 | CC(C)Cc1cc(C(=O)N2CCN(CC(C)C)CC2)ccc1OCc1ccc(F)cc1F.Cl [Example 24, 1-[4-(2,4-difluorobenzyloxy)-3-isobutylbenzoyl]-4-isobutylpiperazine hydrochloride] | 33% | 7% | –
